# Source: patent publication US8558056B2, “LysM receptor-like kinases to improve plant defense response against fungal pathogens” (The Curators of the University of Missouri, priority 2006, dated 2013)
# How the values were obtained:
# [1] = test system: selected CRGs (LjMPK3, LjWRKY22, LjWRKY33, LjWRKY53); experiment: Semi-quantitative RT-PCR of selected CRGs in Lotus japonicus Nod signal receptor mutants; assay type: in vivo; settings: chitooctaose 1 μM, 30 minutes; wild type Gifu as comparison
# Experimental: PCR reactions were conducted using Taq polymerase (Promega, Madison, Wis., USA) under the following conditions: 94° C., 3 minutes; 94° C., 30 seconds; 55° C., 30 seconds; 72° C., 1.5 minutes; 25 cycles; 72° C., 3 minutes. The corresponding CRG genes in Lotus japonicus were identified by blasting the cDNA sequences of the above Arabidopsis CRGs (and also actin-2) against the TIGR Lotus japonicus Gene Index. The closest hits were chosen and arbitrarily named after their Arabidopsis counterparts with the prefix Lj (standing for Lotus japonicus). The following primer pairs were designed to detect these genes:
# LjActin-2 was used as an internal control.
# LysM RLK NFR1 and NFR5 Nod signal receptors specifically recognize a lipochitin molecule with a back-bone of 4-5 units of N-acetyl-D-glucosamine. For review, see Stacey et al. 2006. […] In more details, both the wild type (Gifu) and the Nod signal receptor mutants nfr1-1 and nfr5-1 were treated with chitooctaose for 30 minutes at a concentration of 1 μM or with water (as a control). The selected CRGS were detected using semi-quantitative RT-PCR. LjActin-2 was used as an internal control.
# [2] = test system: wild-type Col-0 gene expression (chitooligosaccharide-responsive genes, CRGs); experiment: Affymetrix ATH1 whole genome array, response to chitooctaose in wild-type plants; assay type: in vivo, Arabidopsis thaliana
# Experimental: (§1) More particularly, Arabidopsis seedlings were grown hydroponically as described by Ramonell et al., 2005. Fourteen-day old seedlings were treated with chitooctaose (Sigma, St. Louis, Mo., USA) at a concentration of 1 μM or with distilled water (as a control) for 30 minutes. To test flagellin-responsive genes, 14-day old seedlings were also treated with the flagellinderived flg22 peptide (dissolved in dimethyl sulfoxide, DMSO) at a final concentration of 10 μM or with an equivalent amount of DMSO (as a control) for 30 minutes. To test other defense pathways, Arabidopsis seedlings were also treated for 24 hours with 5 mM SA, 100 μM MeJA, and 0.5 mM ACC (all obtained from Sigma, St. Louis, Mo., USA) and dissolved in 0.1% ethanol. The control plants were similarly treated with an equivalent amount of ethanol. After treatment, the seedlings were collected and frozen in liquid nitrogen for RNA isolation.
# (§2) Total RNA was isolated using the Trizol Reagent according to the manufacturer's instructions (Invitrogen, Carlsbad, Calif.). The isolated RNA was further purified using Qiagen RNeasy Mini Columns according to the manufacturer's instruction (Qiagen, Valencia, Calif., USA) and treated with Turbo™ DNase (Ambion, Austin, Tex., USA). For semi-quantitative RT-PCR or quantitative 17 PCR, cDNA was synthesized using M-MLV reverse transcriptase according to the manufacturer's instructions (Promega, Madison, Wis., USA).
# (§3) Gene expression profiles in the AtLysM RLK1 mutant in response to chitooctaose were studied using the Affymetrix Arabidopsis Whole Genome Array ATH1 (with ˜22000 genes), with wild-type plants as a control. […] A row represents a gene and each column represents a sample. WT-8mer=wild-type Col-0 treated with chitooctaose; WT-water=wild-type Col-0 treated with distilled water; Mu-water=the AtLysM RLK1 mutant treated with distilled water; Mu-8mer=the AtLysM RLK1 mutant treated with chitooctaose. The color bar below the cluster picture: the red color indicates the expression level of a gene is above the mean expression of the gene across all samples; the green color indicates expression lower than the mean.
# [3] = test system: selected CRGs (MPK3, WRKY22, WRKY29, WRKY33, WRKY53); experiment: Semi-quantitative RT-PCR of selected CRGs after chitooctaose; assay type: in vivo, Arabidopsis thaliana; settings: chitooctaose or water for 30 minutes; mutant vs wild type
# Experimental: To test whether non-leguminous LysM RLKs may be involved in the perception of chitooligosaccharides and the subsequent induction of downstream genes that have been implicated in fungal defense, T-DNA insertion mutants were obtained for all five LysM RLK genes (i.e., At1g51940, At2g23770, At2g33580, At3g01840, and At3g21630) in Arabidopsis. The gene At3g21630 (SEQ ID. No. 3) is also termed AtLYK1 or AtLysM RLK1. Homozygous mutants were then treated with a purified chitooligosaccharide (chitooctaose) and the expression levels of known CRGs, such as MPK3 (At3g45640, SEQ ID. No. 8), WRKY22 (At4g01250, SEQ ID. No. 9), WRKY29 (At4g23550, SEQ ID. No. 10), WRKY33 (At2g38470, SEQ ID. No. 11), and WRKY53 (At4g23810, SEQ ID. No. 12), were measured.
# More particularly, Arabidopsis seedlings were grown hydroponically as described by Ramonell et al., 2005. […]
# Total RNA was isolated using the Trizol Reagent according to the manufacturer's instructions (Invitrogen, Carlsbad, Calif.). […] For semi-quantitative RT-PCR or quantitative 17 PCR, cDNA was synthesized using M-MLV reverse transcriptase according to the manufacturer's instructions (Promega, Madison, Wis., USA). […]
# Both the mutant (Mu) and wildtype (WT) plants were treated with purified chitooctaose or water (as a control) for 30 minutes and gene expression of the selected CRGs was detected using semi-quantitative RT-PCR. […]
# [4] = test system: AtLysM RLK1 mutant gene expression (chitooligosaccharide-responsive genes, CRGs); experiment: Affymetrix ATH1 whole genome array, response to chitooctaose in the AtLysM RLK1 mutant; assay type: in vivo, Arabidopsis thaliana
# Experimental: as §1, §2
# The AtLysM RLK1 insertion mutant (096F09) used in the current work was generated in the context of the GABI-Kat program and provided by Bernd Weisshaar (MPI for Plant Breeding Research, Cologne, Germany). See Shibuya et al., 2001. The homozygous plants were identified by genotyping using the following gene-specific primers: […]
# as §3
# [5] = test system: Arabidopsis LysM RLK genes; experiment: DNA microarray (Affymetrix 24K chip) of plants sprayed with chitin; assay type: in vivo, Arabidopsis thaliana; settings: leaves sprayed with chitin (100 μM)+0.2% Tween-20
# Experimental: A total of five LysM receptor-like kinase genes were identified in Arabidopsis from the studies described in Example 1. The Genbank numbers of these five genes are AtLYK1 (GenBank accession #At3g21630), AtLYK2 (GenBank accession # At3g01840), AtLYK3 (GenBank accession #At1g51940), AtLYK4 (GenBank accession # At2g23770), AtLYK5 (GenBank accession #At2g33580), and, which are designated as SEQ ID. Nos. 3-7, respectively. A DNA microarray experiment was performed by treating Arabidopsis plants with chitin. Leaves were treated by spraying with chitin (100 μM)+0.2% Tween-20. The Affymetrix 24K Arabidopsis genome chip was utilized according to the manufacturer's instructions for this test. […] The data implicate these genes in plant chitin response.
# soybean LysM RLK genes = experiment: Expression analysis of GmLysM receptor-like kinases in chitin-treated leaves; assay type: in vivo; settings: leaves sprayed with chitin (100 μM)+0.2% Tween-20
# Experimental: Soybean genotypes used for mapping of soybean QTLs for white mold resistance included Corsoy 79 and Dassel. […] Finally, as was the case with Arabidopsis, some of the soybean LysM RLK genes are induced upon treatment of soybean with chitin, as confirmed by the results shown in FIG. 20. Leaves were treated by spraying with chitin (100 μM)+0.2% Tween-20.
# transcription factors = experiment: qRT-PCR of transcription factors after chitin treatment; design: species or system Arabidopsis thaliana; settings: in vivo
# Experimental: Based on the genome-wide gene expression studies using microarrays, quantitative reverse transcriptase-polymerase chain reaction (qRT-PCR) was conducted to identify over 120 different transcription factors in Arabidopsis thaliana whose expression is enhanced by chitin treatment. Many of these transcription factors are known to be involved in fungal pathogen response. […] Each of these transcription factors is a potential target for genetic manipulation in order to enhance disease resistance. The results of this study are described in greater details in Libault et al., 2007, which is hereby expressly incorporated by reference.
# AtLysM RLK1 gene = experiment: RT-PCR of AtLysM RLK1 gene expression after elicitor treatment; assay type: in vivo, Arabidopsis thaliana; settings: seedlings, chitooctaose 1 μM, 30 minutes
# Experimental: as §1
# These two primers were also used to detect the expression of the AtLysM RLK1 gene via RT-PCR. The other primers used to detect the transcript 5′ of the insertion site were as follows:
# The expression pattern of the AtLysM RLK1 gene was also studied. […]
# Alternaria brassicicola = experiment: Pretreatment before inoculation with Alternaria brassicicola (lesion size, spore production); assay type: in vivo, Arabidopsis thaliana
# From the text: The susceptibility appeared to be less than that observed in NahG plants, which express salicylate hydrolase, preventing the accumulation of salicylic acid, and are therefore very susceptible to the fungal pathogen (FIG. 13A). […] Arrows indicate sites where conidiophores are forming. All photographs were taken six days after inoculation. Bar=0.1 mm. 4-week-old plants were also inoculated with the necrotrophic fungus Alternaria brassicicola. Three days after inoculation, the mutant developed slightly bigger lesions than the wild-type plants, as measured by average diameter of the lesions (FIGS. 13C and 13D). In agreement with this, the mutant plants also produced more spores per lesion than the wild-type plants (FIG. 13E).
# (§4) To test the specificity of AtLysM RLK1 in fungal disease resistance, the response of the mutant to the bacterial pathogen Pseudomonas syringae pv. Tomato DC3000 was also examined. […] WT=wild-type Col-0; Mu=the AtLysM RLK1 mutant. CSC=crab shell chitin, 8mer=chitooctaose, and water=distilled water. Empty columns=WT Col-0 and solid black columns=the AtLysM RLK1 mutant. Asterisks indicate statistically significant differences between the mutant and wild-type plants (P<0.05). Error bars=standard error. Each experiment was repeated at least twice with similar results.
# [6] = test system: Pseudomonas syringae pv. tomato DC3000; experiment: Pretreatment before inoculation with Pseudomonas syringae pv. tomato DC3000 (bacterial growth); assay type: in vivo, Arabidopsis thaliana
# From the text: as §4
# [7] = pretreatment of AtLysM RLK1 mutant plants
# [8] = pretreatment of wild-type plants
molecule,measurement,setting,value
CC(=O)N[C@H]1[C@H](O[C@H]2[C@H](O)[C@@H](NC(C)=O)[C@H](O[C@H]3[C@H](O)[C@@H](NC(C)=O)[C@H](O[C@H]4[C@H](O)[C@@H](NC(C)=O)C(O)O[C@@H]4CO)O[C@@H]3CO)O[C@@H]2CO)O[C@H](CO)[C@@H](O[C@@H]2O[C@H](CO)[C@@H](O[C@@H]3O[C@H](CO)[C@@H](O[C@@H]4O[C@H](CO)[C@@H](O[C@@H]5O[C@H](CO)[C@@H](O)[C@H](O)[C@H]5NC(C)=O)[C@H](O)[C@H]4NC(C)=O)[C@H](O)[C@H]3NC(C)=O)[C@H](O)[C@H]2NC(C)=O)[C@@H]1O (some centres unmarked) [chitooctaose],induction of the selected CRGs in L. japonicus nfr1-1 and nfr5-1 mutants,[1],did not block the induction
same,number of down-regulated genes in wild-type plants,"[2]; 1.5 fold, P<0.05",227 genes
same,number of up-regulated genes in wild-type plants,"[2]; 1.5 fold, P<0.05",663 genes
same,number of genes that responded more than 1.5 fold (P<0.05) to chitooctaose elicitation,"[2]; in both the wild-type and mutant plants, 30 minutes after the treatment",909 genes
same,number of genes with a change in transcript levels in wild-type plants,"[2]; out of the 909 genes, 1.5 fold, P<0.05",890 genes
same,induction of the selected CRGs in the AtLysM RLK1 insertion mutant,[3],almost completely blocked the induction
same,number of down-regulated genes in the mutant,[4]; AtLysM RLK1 mutant,17 genes
same,number of up-regulated genes in the mutant,[4]; AtLysM RLK1 mutant,16 genes
same,number of genes responsive in the mutant,"[4]; out of 909, AtLysM RLK1 mutant",33 genes
chitin,increase in transcription of At2g23770,[5],2 fold
same,increase in transcription of At2g33580,[5],13 fold
same,increase in transcription of At3g21630,[5],2 fold
same,induction of soybean LysM RLK genes,soybean LysM RLK genes,induced
same,number of transcription factors whose expression is enhanced by chitin treatment,transcription factors,over 120 transcription factors
chitooligosaccharides,induction of the AtLysM RLK1 gene,AtLysM RLK1 gene,induced
same,"resistance after pretreatment, A. brassicicola",Alternaria brassicicola; [7],did not enhance resistance
same,disease symptoms (lesion size and spore production) after A. brassicicola inoculation,Alternaria brassicicola; [8],reduced disease symptoms
same,"resistance after pretreatment, P. syringae pv. tomato DC3000",[6]; [7],did not enhance resistance
same,growth of the bacterial pathogen P. syringae pv. tomato DC3000,[6]; [8],inhibited the growth
same,share of CRGs whose regulation is blocked by the AtLysM RLK1 mutation,[4]; AtLysM RLK1 mutant vs wild type,~98%
